Laboratory results from patent US20030186434A1, “Method of forming vertebrate pancreas in vitro” (priority 2002, published 2003).

How the values were obtained:
[1] = tested on: blastopore upper lip of early gastrula of a Xenopus; assay: Timing of retinoic acid treatment: preculture of blastopore upper lip before one hour treatment; assay type: cell-based; settings: 10^−4 M, treated 1 hour, cultured 10 days
Procedure: Regarding the other tissues, an intestinal epithelium was formed aside from notochord and mesenchyme in those precultured for 0 and 5 hours. However, as to those treated with retinoic acid after preculture for more than 15 hours, the formation of intestinal epithelium was suppressed and the differentiation rate of epithelium, coelomic epithelium and pharyngeal epithelium increased.

[2] = tested on: blastopore upper lip of early gastrula of a Xenopus; assay: Tissue differentiation of blastopore upper lip cultured continuously in retinoic acid solution for 10 days; assay type: cell-based
[3] = preculture 0 hours, 34 specimens
[4] = preculture 5 hours, 36 specimens
[5] = preculture 15 hours, 40 specimens
[6] = preculture 25 hours, 34 specimens
[7] = 10^−5 M, continuous 10 days, 17 specimens

## CC1=C(/C=C/C(C)=C/C=C/C(C)=C/C(=O)O)C(C)(C)CCC1 [Retinoic acid, retinoic acid]
[1]; [3]
  Atypical epidermis differentiated, specimens (%): 0 (0)
  Cartilage differentiated, specimens (%): 0 (0)
  Cement gland differentiated, specimens (%): 0 (0)
  Coelomic epithelium differentiated, specimens (%): 0 (0)
  Ear vesicle differentiated, specimens (%): 0 (0)
  Epidermis differentiated, specimens (%): 11 (32)
  Eye or its fragments differentiated, specimens (%): 0 (0)
  Gastric gland differentiated, specimens (%): 0 (0)
  Hemocyte differentiated, specimens (%): 0 (0)
  Intestinal epithelium differentiated, specimens (%): 34 (100)
  Mesenchyme differentiated, specimens (%): 23 (68)
  Muscle differentiated, specimens (%): 1 (3)
  Neural tissue differentiated, specimens (%): 0 (0)
  Notochord differentiated, specimens (%): 33 (97)
  Pancreas differentiated, specimens (%): 24 (71)
  Pharyngeal epithelium differentiated, specimens (%): 25 (74)
  Pronephros differentiated, specimens (%): 0 (0)
  Yolk-rich cell differentiated, specimens (%): 32 (94)
[1]; [4]
  Atypical epidermis differentiated, specimens (%): 0 (0)
  Cartilage differentiated, specimens (%): 0 (0)
  Cement gland differentiated, specimens (%): 0 (0)
  Coelomic epithelium differentiated, specimens (%): 0 (0)
  Ear vesicle differentiated, specimens (%): 0 (0)
  Epidermis differentiated, specimens (%): 5 (14)
  Eye or its fragments differentiated, specimens (%): 0 (0)
  Gastric gland differentiated, specimens (%): 0 (0)
  Hemocyte differentiated, specimens (%): 0 (0)
  Intestinal epithelium differentiated, specimens (%): 33 (92)
  Mesenchyme differentiated, specimens (%): 30 (83)
  Muscle differentiated, specimens (%): 0 (0)
  Neural tissue differentiated, specimens (%): 0 (0)
  Notochord differentiated, specimens (%): 36 (100)
  Pancreas differentiated, specimens (%): 19 (53)
  Pharyngeal epithelium differentiated, specimens (%): 27 (75)
  Pronephros differentiated, specimens (%): 0 (0)
  Yolk-rich cell differentiated, specimens (%): 30 (83)
[1]; [5]
  Atypical epidermis differentiated, specimens (%): 0 (0)
  Cartilage differentiated, specimens (%): 0 (0)
  Cement gland differentiated, specimens (%): 0 (0)
  Ear vesicle differentiated, specimens (%): 0 (0)
  Epidermis differentiated, specimens (%): 13 (33)
  Eye or its fragments differentiated, specimens (%): 0 (0)
  Hemocyte differentiated, specimens (%): 0 (0)
  Mesenchyme differentiated, specimens (%): 40 (95)
  Muscle differentiated, specimens (%): 0 (0)
  Neural tissue differentiated, specimens (%): 0 (0)
  Pronephros differentiated, specimens (%): 0 (0)
[1]; [6]
  Atypical epidermis differentiated, specimens (%): 0 (0)
  Cartilage differentiated, specimens (%): 0 (0)
  Cement gland differentiated, specimens (%): 0 (0)
  Coelomic epithelium differentiated, specimens (%): 16 (47)
  Ear vesicle differentiated, specimens (%): 0 (0)
  Epidermis differentiated, specimens (%): 28 (82)
  Eye or its fragments differentiated, specimens (%): 0 (0)
  Gastric gland differentiated, specimens (%): 0 (0)
  Hemocyte differentiated, specimens (%): 0 (0)
  Intestinal epithelium differentiated, specimens (%): 5 (15)
  Mesenchyme differentiated, specimens (%): 34 (100)
  Muscle differentiated, specimens (%): 1 (3)
  Neural tissue differentiated, specimens (%): 0 (0)
  Notochord differentiated, specimens (%): 33 (97)
  Pancreas differentiated, specimens (%): 0 (0)
  Pharyngeal epithelium differentiated, specimens (%): 34 (100)
  Pronephros differentiated, specimens (%): 0 (0)
  Yolk-rich cell differentiated, specimens (%): 20 (59)
[2]; 10^−4 M, continuous treatment
  survival of explants while being cultured: all the explants died
[2]; [7]
  Atypical epidermis differentiated, specimens (%): 0 (0)
  Cartilage differentiated, specimens (%): 0 (0)
  Cement gland differentiated, specimens (%): 0 (0)
  Coelomic epithelium differentiated, specimens (%): 2 (12)
  Ear vesicle differentiated, specimens (%): 0 (0)
  Epidermis differentiated, specimens (%): 7 (41)
  Eye or its fragments differentiated, specimens (%): 0 (0)
  Gastric gland differentiated, specimens (%): 0 (0)
  Hemocyte differentiated, specimens (%): 0 (0)
  Intestinal epithelium differentiated, specimens (%): 8 (47)
  Mesenchyme differentiated, specimens (%): 8 (47)
  Muscle differentiated, specimens (%): 0 (0)
